# Measured values from US20200255492A1, “LEPTIN PEPTIDES AND THEIR USE FOR TREATING NEUROLOGICAL DISORDERS” (UNIVERSITY OF DUNDEE, priority 2017, published 2020).
# Legend:
# [1] = Samson et al. 1996; cited from earlier work
# SH-SY5Y = assay: Cell survival with Aβ1-42 and leptin (22-56) (data not shown); format: cell-based, human
# Method: The human neuroblastoma cell line, SH-SY5Y (ECACC, UK) was maintained in Dulbecco's Modified Eagle Medium supplemented with glucose ([…]) and 10% (v/v) cosmic calf serum (Fisher Scientific, UK) at 37° C. in a humidified atmosphere of 5% CO2, 95% air and allowed to reach 70-80% confluence before seeding. Cells (passage 10-18) were plated at 10 000 cells per well in 96 well tissue culture plates (Nunc, VWR, UK) and at a density of 2×10^5 cells in 35 mm dishes for protein extraction. To induce differentiation, cells were cultured in DMEM supplemented with glucose ([…]), 1% (v/v) cosmic calf serum and 10 μM retinoic acid for 5 days. Thereafter they were incubated in DMEM supplemented with glucose ([…]), serum replacement 2 (2%; Sigma, UK) and 18 μM 5-fluorodeoxyuridine to inhibit proliferation of undifferentiated cells. […]
# The concentration of lactate dehydrogenase (LDH) in the culture medium or the mitochondrial activity within cells was used to monitor the level of cell death, as previously (Oldreive and Doherty 2010). […] Plates were washed 5-10 times in dH2O and cells solubilised in 100 μl dimethyl sulfoxide (DMSO) before reading the absorbance on a Biohit BP100 plate reader. For all assays, data is expressed as percentage relative to control, untreated wells to normalize for differences in plating density between individual experiments. […]
# acute hippocampal slices = assay: HFS-induced LTP with leptin hexamers; format: cell-based, Sprague Dawley rats; settings: 10 nM for 50 min prior to HFS; control LTP 117±10.8% / 125±4.9%
# Method: Parasagittal hippocampal slices (300 μm) were prepared from either P13-21 or 12-24-week-old male Sprague Dawley rats as previously (Moult et al. 2010). Brains were rapidly removed and placed in ice-cold artificial CSF (aCSF; bubbled with 95% O2 and 5% CO2) containing the following (in mm): 124 NaCl, 3 KCl, 26 NaHCO3, 1.25 NaH2PO4, 2 CaCl2, 1 MgSO4, and 10 d-glucose. Once prepared, parasagittal slices were allowed to recover at room temperature in oxygenated aCSF for 1 h before use. Slices were transferred to a submerged chamber maintained at room temperature and perfused with artificial cerebrospinal fluid at 2 ml min^−1. Standard extracellular recordings were used to monitor evoked field excitatory postsynaptic potentials (fEPSP) from stratum radiatum. The Schaffer collateral-commissural pathway was stimulated (constant voltage; 0.1 ms) at 0.033 Hz, using a stimulus intensity that evoked a peak amplitude ˜50% of the maximum. Synaptic potentials were low pass filtered at 2 kHz and digitally sampled at 10 kHz. The fEPSP slope was measured and expressed relative to baseline. Synaptic records are the average of 4 consecutive responses and stimulus artefacts are blanked for clarity. Recordings were made using an Axopatch 200B amplifier and analyzed using LTP v2.4 software. In synaptic plasticity studies, the degree of potentiation was calculated 30-35 min after HFS and expressed as a percentage of baseline±standard error of mean (SEM).
# To determine if the leptin hexamers influence the magnitude of activity-dependent synaptic plasticity, standard extracellular recording techniques were used to assess the effects of leptin (116-121, 117-122, 118-123, 120-125, 124-129 and 125-130) on the magnitude of LTP induced by high frequency stimulation (100 Hz, 1 s) in acute hippocampal slices. […] In parallel studies, application of leptin (118-123; 158±3.8%; n=7; p<0.05; FIG. 8) or leptin (120-125; to 163±8.8% of baseline; n=5; p<0.05) also facilitated LTP, compared to control LTP (FIG. 8).
# [2] = test system: differentiated human neural cells (SH-SY5Y); assay: Crystal violet assay of cell number; format: cell-based
# Method: (§1) The human neuroblastoma cell line, SH-SY5Y (ECACC, UK) was maintained in Dulbecco's Modified Eagle Medium supplemented with glucose ([…]) and 10% (v/v) cosmic calf serum (Fisher Scientific, UK) at 37° C. in a humidified atmosphere of 5% CO2, 95% air and allowed to reach 70-80% confluence before seeding. Cells (passage 10-18) were plated at 10 000 cells per well in 96 well tissue culture plates (Nunc, VWR, UK) and at a density of 2×10^5 cells in 35 mm dishes for protein extraction. To induce differentiation, cells were cultured in DMEM supplemented with glucose ([…]), 1% (v/v) cosmic calf serum and 10 μM retinoic acid for 5 days. Thereafter they were incubated in DMEM supplemented with glucose ([…]), serum replacement 2 (2%; Sigma, UK) and 18 μM 5-fluorodeoxyuridine to inhibit proliferation of undifferentiated cells. The 50% of the medium was changed every 2-3 days and pharmacological treatment was carried out 7 days after switching to this medium. Reagents used were (from Sigma UK unless stated) 0.1-10 nM human leptin and leptin (116-130); 0.1-10 nM leptin (22-56; Bachem; Switzerland); 10 nM leptin (116-121) leptin (117-122), leptin (124-129) or leptin (125-130; all Severn Biotech, UK); 5 μM copper chloride; […], 5 μM WP1066 or 50 nM wortmannin. All treatments were added to the culture at the same time and survival assays were carried out after 96 h treatment. Protein samples for signaling ELISA were extracted 3 h after exposure to the relevant reagents and for biomarker expression after 72 hours.
# The concentration of lactate dehydrogenase (LDH) in the culture medium or the mitochondrial activity within cells was used to monitor the level of cell death, as previously (Oldreive and Doherty 2010). In certain experiments, a Crystal violet assay was used to assess total cell number. Cells were fixed in neutral buffered formalin and washed 3 times in PBS prior to staining with 0.01% crystal violet acetate for 5 min. Plates were washed 5-10 times in dH2O and cells solubilised in 100 μl dimethyl sulfoxide (DMSO) before reading the absorbance on a Biohit BP100 plate reader. For all assays, data is expressed as percentage relative to control, untreated wells to normalize for differences in plating density between individual experiments.
# In parallel studies a crystal violet assay was used to verify these findings by assessing cell number. In CuCl2-treated cells, there was a concentration-dependent increase in the survival of cells treated with either leptin or leptin (116-130). […] Treatment with leptin (116-130) also mirrored leptin action by increasing cell viability in Aβ1-42-treated cultures as cell number increased by 19.2±15% and 44.3±7.5% after treatment with 0.1 nM or 10 nM leptin, respectively (n=5 for each; P<0.01).
# [3] = test system: leptin-deficient ob/ob mice; settings: cited from earlier work
# Akt = assay: ELISA ratio of phospho-Akt to pan-Akt; format: cell-based, human; settings: 1 nM; 3 h
# Method: as §1, with “All treatments were added to the culture at the same time and survival assays were carried out after 96 h treatment. Protein samples for signaling ELISA were extracted 3 h after exposure to the relevant reagents and for biomarker expression after 72 hours.” left out
# STAT3 = assay: ELISA ratio of phospho-STAT3 to pan-STAT3; format: cell-based, human; settings: 1 nM; 3 h
# Method: as §1, with “All treatments were added to the culture at the same time and survival assays were carried out after 96 h treatment. Protein samples for signaling ELISA were extracted 3 h after exposure to the relevant reagents and for biomarker expression after 72 hours.” left out
Substance,"magnitude of LTP after HFS (100 Hz, 1 s) (acute hippocampal slices)","increase in cell number, Aβ1-42-treated cultures ([2]; 0.1 nM)","increase in cell number, CuCl2-treated cells ([2]; 0.1 nM)","increase in cell number, Aβ1-42-treated cultures ([2]; 10 nM)","increase in cell number, CuCl2-treated cells ([2]; 10 nM)",body weight [3],food intake [3],further results
"leptin (22-56): leptin fragment amino acids 22-56 (Bachem), comparison fragment (VPIQKVQDDTKTLIKTIVTRINDISHTQSVSSKQK; UniProt P41159 22-56, looked up, fragment) [reference compound]",–,–,–,–,–,–,–,food intake [1]: significant reductions in food intake; survival in Aβ1-42 treated cells (SH-SY5Y; Aβ1-42 with 10 nM leptin (22-56)): 48.6±9.3%
"Aβ1-42: amyloid beta 1-42, toxin used in the AD models [reference compound]",–,–,–,–,–,–,–,survival following Aβ1-42 treatment (SH-SY5Y; Aβ1-42 alone): 41.2±5.8 % survival
CSLPQT (listed as Mus musculus) [leptin (117-122)],191±19.7 % of baseline,–,–,–,–,–,–,–
"leptin: the metabolic hormone leptin, whole (full length) leptin molecule; human leptin from Sigma in SH-SY5Y work",–,19.2±15%,16.7±3.4%,44.3±7.5%,43.4±9.2%,–,–,–
SCSLPQTSGLQKPES (listed as Mus musculus) [leptin (116-130)],–,29.4±9.4%,27.8±10.6%,51.8±6.3%,39.9±13.5%,reduced food intake and body weight,reduced food intake and body weight,ratio of phosphorylated Akt to pan Akt (Akt): an increase in the ratio of phosphorylated Akt to pan Akt; ratio of phosphorylated STAT3 to pan STAT3 (STAT3): increased markedly
SCSLPQ (listed as Mus musculus) [leptin (116-121)],162±6.3 % of baseline,–,–,–,–,reduced food intake and body weight,reduced food intake and body weight,–
